pEC50: −log10 of the molar value.

The source of these data is ChEMBL document CHEMBL1146788, “Synthesis and biological evaluation of novel beta-carboline derivatives as Tat-TAR interaction inhibitors” (Bioorg Med Chem Lett, 2004).

Assay [1] relates to MT4. As to the kind of experiment: Concentration required to protect MT-4 cells against the cytopathogenicity of HIV-1 IIIB. The format is functional, cell-based. The settings on record: Homo sapiens. A general note: Damage to the host cells serves as the signal in cytopathic effect assays.
Assay [2] deals with MT4. As to the kind of experiment: Concentration required to inhibit the proliferation of uninfected MT-4 cells. The settings on record: Homo sapiens. It counts as functional.

Regarding `Cc1[nH]c(C(=O)NCCCN)cc2c3ccccc3nc1-2`, the pEC50 in the assay with MT4 [1] is < 4.00. Besides, the CC50 in the assay on MT4 [2] was > 100 µM.
For the molecule `N=C(N)NCCCNC(=O)c1cc2c3ccccc3nc-2c[nH]1`, the pEC50 in the assay with MT4 [1] is ≤ 4.30. Moreover, the CC50 in the assay with MT4 [2] was > 1000 µM.
`Cc1[nH]c(C(=O)NCCCN=C(N)N)cc2c3ccccc3nc1-2`: in the assay with MT4 [1], the negative-log EC50 (pEC50) was ≤ 4.30. Also, the CC50 in the assay on MT4 [2] is > 100 µM.
Turning to `NCCCNC(=O)c1cc2c3ccccc3nc-2c[nH]1`, the negative-log EC50 (pEC50) with MT4 [1] was < 3.00. Also, in the assay on MT4 [2], the CC50 is > 1000 µM.

As usually defined, the pEC50 is the negative decadic logarithm of the EC50, by convention in mol/L. A high value points to a small EC50. One may read the CC50 as the concentration at which the toxic effect on the cells reaches its halfway point. Read a high CC50 as better tolerance by the cells.
